Assay results taken from patent US20170202936A1, “Identification, Optimization And Use Of Cryptic HLA-B7 Epitopes For Immunotherapy” (VAXON BIOTECH, priority 2006, published 2017).

Assays:
[1] = test system: HLA-B*0702 transgenic mice; test: CTL induction in vivo in HLA-B*0702 transgenic mice (immunogenicity, cytotoxic assay on peptide-loaded RMA-B7 targets); set-up: key to Corresponding native peptide cross-reconnaissance: + for immunogenicity or native peptide cross recognition means that the peptide induced a specific response in at least one HLA-B*0702 transgenic mouse, able to recognized the corresponding native peptide
Protocol: (§1) CTL Induction in vivo in HLA-B*0702 Transgenic Mice. Mice were injected subcutaneously with 100 μg of peptide emulsified in Incomplete Freund's Adjuvant (IFA) in the presence of 150 μg of the I-A^b restricted HBVcore128 T helper epitope ([…], SEQ ID NO: 10). After 11 days, 5×10^7 spleen cells were stimulated in vitro with peptide (10 μM). On day 6 of culture, the bulk responder populations were tested for specific cytotoxicity.
(§2) Cytotoxic assay. Targets were labelled with 100 μCi of Cr^51 for 60 min, plated in 96-well V-bottomed plates (3×10^3 cell/well in 100 μL of RPMI 1640 medium) and, when necessary, pulsed with peptides (1 μM) at 37° C. for 2 hours. Effectors were then added in the wells and incubated at 37° C. for 4 hours. Percentage of specific lysis was determined as: % Lysis=(Experimental Release−Spontaneous Release)/(Maximal Release−Spontaneous Release)×100.
(§3) HLA-B7 transgenic mice were vaccinated with the selected peptides, and eleven days later, their spleen cells were in vitro stimulated with the peptide.

[2] = test system: HLA-B*0702 transgenic mice; test: as above; set-up: key: + for immunogenicity or native peptide cross recognition means that the peptide induced a specific response in at least one HLA-B*0702 transgenic mouse, able to recognized the corresponding native peptide; conditions: Table V
Protocol: as §1, §2, §3

[3] = test system: T2-B7 cells; test: IFNγ intracellular staining of human CTL stimulated with peptide-loaded T2-B7 cells; type: cell-based; conditions: donor D5609, 4 pools; T2-B7 cells loaded with TERT444 or TERT444A1
Protocol: Generation of CTL from human PBMC. PBMC were collected by leukapheresis from healthy HLA-B*0702 volunteers. Dendritic cells (DC) were produced from adherent cells cultured for seven days (2×10^6 cells/ml) in the presence of 500 IU/ml GM-CSF and 500 IU/ml IL-4 (R&D Systems, Minneapolis, Minn.) in complete medium (RPMI-1640 supplemented with 10% heat inactivated human AB serum, […] L-Glutamine and antibiotics). On day seven, DC were pulsed with 10 μM peptides for 2 hrs; maturation agents Poly I:C (Sigma, Oakville, Canada) at 100 ng/ml and anti-CD40 mAb (clone G28-5, ATCC, Manassas, Va.) at 2 μg/ml were added in the culture and DCs were incubated at 37° C. overnight or up to 48 hours. Mature DC were then irradiated (3500 rads). CD8+ cells were purified by positive selection with CD8 MicroBeads (Miltenyi Biotec, Auburn, Calif.) according to the manufacturer's instructions. 2×10^5 CD8^+ cells+6×10^4 CD8^− cells were stimulated with 2×10^4 peptide pulsed DC in complete culture medium supplemented with 1000 IU/ml IL-6 and 5 IU/ml IL-12 (R&D Systems, Minneapolis, Minn.) in round-bottomed 96 well plates. From day seven, cultures were weekly restimulated with peptide-loaded DC in the presence of 20 IU/ml IL-2 (Proleukin, Chiron Corp., Emeryville, Calif.) and 10 ng/ml IL-7 (R&D Systems, Minneapolis, Minn.). […]

[4] = test system: COS-7 cells transfected with HLA-B*0702 and TERT; test: Peptide processing assay on COS-7 transfected cells (TNFα secretion by murine CTL); type: cell-based, simian; conditions: COS-7 cells transfected with HLA-B*0702 and/or TERT
Protocol: Peptide Processing Assay on COS-7 Transfected Cells. 2.2×10^4 simian COS-7 cells were plated in flat-bottomed 96-well plates in DMEM+10% FCS, in triplicate for each condition. Eighteen hours later, cells were transfected with 100 ng of each DNA plasmid with DEAE Dextran. After 4 hours, PBS+10% DMSO was added for 2 minutes. Transfected COS cells were incubated in DMEM+10% FCS during 40 hours and then used to stimulate murine CTL in a TNFα secretion assay.
TNFα Secretion Assay. Transfected COS-7 cells at day 4 were suspended in […] of RPMI+10% FCS and used as stimulating cells. 5×10^4 murine T cells were then added in 50 μl RPMI 10% FCS and incubated for 6 hours. Each condition was tested in triplicate. 50 μl of the supernatant was collected to measure TNFα. Standard dilutions were prepared in 50 μl with final doses of TNFα ranging from 104 to 0 pg/ml. On both the supernatants and the standard dilutions, 3×10^4 TNFα sensitive WEHI-164c13 cells in 50 μl were added. They were incubated for 16 h at 37° C. Inhibition of cell proliferation was evaluated by the MTT colorimetric method (Espevik and Nissen-Meyer, 1986).

[5] = target: T1, HLA-B*0702 (Homo sapiens, UniProt P01889); test: Measurement of peptide relative affinity to HLA-B*0702 (T2-B7 cells, ME-1 mAb staining); type: binding
T1 construct: expressed in transfected cells; host or cells: human T2 cells transfected with HLA-B*0702 (T2-B7)
Protocol: The affinity of a peptide for HLA-B*0702 can be determined by methods known in the art, for instance by the assay described by Rohrlich et al., 2003. Results are expressed as relative affinity (RA) when compared to a reference peptide. […] Peptides with RA greater than 10 are therefore considered to be cryptic peptides (or epitopes).
Measurement of Peptide Relative Affinity to HLA-B*0702. The protocol used has been described previously (Rohrlich et al., 2003). Briefly, T2-B7 cells were incubated at 37° C. for 16 hours with peptides concentrations ranging from 100 μM to 0.1 μM, and then stained with ME-1 monoclonal antibody (mAb) to quantify the surface expression of HLA-B*0702. For each peptide concentration, the HLA-B*0702 specific staining was calculated as the percentage of staining obtained with 100 μM of the reference peptide CMV265-274 (R10V; […], SEQ ID NO: 9). The relative affinity (RA) was determined as: RA=(Concentration of each peptide that induces 20% of HLA-B*0702-expression/Concentration of the reference peptide that induces 20% of HLA-B*0702 expression).

[6] = test system: HLA-B*0702 transgenic mice; test: CTL induction in vivo in HLA-B*0702 transgenic mice (immunogenicity, cytotoxic assay on peptide-loaded RMA-B7 targets); set-up: key: +: means that a specific immunoresponse was generated at least one HLA-B*0702 transgenic mice; conditions: Table IV
Protocol: as §1, §2, §3

With APRRLVQLL [TERT444A1] the “Corresponding native peptide cross-reconnaissance” value ([1]; CTL induced in HLA-B*0702 transgenic mice) was “+”, the “Immunogenicity: specific CTL immune response (in words)” value ([1]; HLA-B*0702 transgenic mice) was “induced an immune response in the majority of vaccinated mice” and the Immunogenicity [2] was “+”. For the same sequence, the “Intracellular IFNg production by human CTL” value [3] was “IFNg producing CTL were detected in pools 2 and 4”, the “Recognition of endogenous TERT by peptide-induced murine CTL” value [4] was “recognized COS-7 cells transfected with both HLA-B*0702 and TERT but not COS-7 cells transfected with either HLA-B*0702 or TERT” and the “Affinity for HLA-B*0702 (in words)” value [5] was “strong affinity”. The RA ([5]; class symbols, Table IV) was “+ (+ = 1 < RA < 10)” and the Immunogenicity [6] was “+”.
